Assay results as given in patent US20170219562A1, “EPIGENETIC COMPOUND SCREENING PLATFORM” (Legacy Emanuel Hospital & Health Center, priority 2016, published 2017).

Experiments:
ADK-L cells = test: 5-methylcytosine (5-mC) ELISA of genomic DNA from treated ADK-L cells; type: cell-based; details: compound at its IC50, genomic DNA isolated 24 hours after treatment, 100 ng DNA, n=8-9
Procedure: The IC50 for each ADK inhibitor was selected as the treatment dose. Total genomic DNA was isolated 24 hours after treatment and 100 ng of purified DNA was run on a 5-methylcytosine (5-mC) ELISA (Zymo Research Corp.) to quantify 5-methylcytosine. […] Data are represented as the mean±SEM (n=8-9). Statistical analysis is a One-way ANOVA (F(4,37)=2.95, p=0.033) followed by uncorrected Fisher's LSD post hoc test.
The IC50 of CBZ was selected as the treatment dose. Total genomic DNA was isolated 24 hours after treatment, and 100 ng of purified DNA was run on a 5-methylcytosine (5-mC) ELISA (Zymo Research Corp) to determine the amount of 5-methylcytosine. […] Data are represented as the mean±SEM (n=8-9). Statistical analysis is a One-way ANOVA for Panel A (F(2,23)=5.67, p=0.0099) followed by uncorrected Fisher's LSD post hoc test and Kruskal-Wallis test for Panel B (Kruskal-Wallis statistic=1.11, p=0.57).

ADK-S cells = test: 5-methylcytosine (5-mC) ELISA of genomic DNA from treated ADK-S cells; type: cell-based; details: for DNA methylation levels in ADK-S cells compared to vehicle-treated ADK-S cells: compound at its IC50, 24 hours after treatment, n=4-9
Procedure: 100 ng of purified genomic DNA was run on a 5-methylcytosine (5-mC) ELISA (Zymo Research Corp.) to quantify 5-methylcytosine.
FIG. 8 is a pair of bar graphs plotting the amount of 5-methylcytosine detected in genomic DNA isolated from the ADK-null cell line (Panel A) and the ADK-S cell line (Panel B) of FIG. 3, in the absence or presence of various ADK inhibitors, with each amount normalized with respect to the amount detected for vehicle-treated ADK-null cells. ADK-null and ADK-S cells identify off target effects of ADK inhibitors on DNA methylation levels. […] The IC50 for each ADK inhibitor was selected as the treatment dose. Total genomic DNA was isolated 24 hours after treatment, and 100 ng of purified DNA was run on a 5-methylcytosine (5-mC) ELISA (Zymo Research Corp) to determine the amount of 5-methylcytosine. […] Data are represented as the mean±SEM (n=4-9). Statistical analysis is a One-way ANOVA followed by uncorrected Fisher's LSD post hoc test.
FIG. 9 is a pair of bar graphs plotting the amount of 5-methylcytosine detected in genomic DNA isolated from the ADK-L cell line (Panel A) and the ADK-S cell line (Panel B) of FIG. 3, in the absence or presence of carbamazepine, with vehicle-treated ADK-null cells as a control. […] The IC50 of CBZ was selected as the treatment dose. Total genomic DNA was isolated 24 hours after treatment, and 100 ng of purified DNA was run on a 5-methylcytosine (5-mC) ELISA (Zymo Research Corp) to determine the amount of 5-methylcytosine. […] Data are represented as the mean±SEM (n=8-9). Statistical analysis is a One-way ANOVA for Panel A (F(2,23)=5.67, p=0.0099) followed by uncorrected Fisher's LSD post hoc test and Kruskal-Wallis test for Panel B (Kruskal-Wallis statistic=1.11, p=0.57).

ADK = ADK (Homo sapiens, UniProt P55263); details: cited from earlier work; for IC50: used as treatment dose, read-out: IC50 of ADK inhibitor
Chain of ADK (P55263 whole entry, species assumed): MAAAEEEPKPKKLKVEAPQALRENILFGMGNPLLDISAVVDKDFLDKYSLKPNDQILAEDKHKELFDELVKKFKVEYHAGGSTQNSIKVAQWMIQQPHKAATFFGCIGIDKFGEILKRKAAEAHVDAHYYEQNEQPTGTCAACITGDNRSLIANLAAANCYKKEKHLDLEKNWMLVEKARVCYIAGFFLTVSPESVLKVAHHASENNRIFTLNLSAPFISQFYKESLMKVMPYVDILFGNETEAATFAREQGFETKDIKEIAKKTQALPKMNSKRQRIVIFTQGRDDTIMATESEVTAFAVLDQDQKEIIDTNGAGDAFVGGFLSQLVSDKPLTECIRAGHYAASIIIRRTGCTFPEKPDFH

| Compound | DNA methylation (5-methylcytosine) in ADK-L cells versus vehicle alone (ADK-L cells) | DNA methylation levels in ADK-S cells compared to vehicle-treated ADK-S cells (ADK-S cells) | IC50 (ADK) | Interaction with ADK (ADK) | DNA methylation levels in CBZ-treated ADK-S cells compared to ADK-null cells (ADK-S cells; CBZ 24.5 nM, 24 hours after treatment, n=8-9, Kruskal-Wallis p=0.57) |
| --- | --- | --- | --- | --- | --- |
| Nc1ncnc2c1c(I)cn2[C@@H]1O[C@H](CO)[C@@H](O)[C@H]1O [5-ITU, 5-iodotubercidin] | significantly decreases DNA methylation | significantly increased | – | – | – |
| Nc1ncnc2c1c(I)cn2[C@@H]1C[C@H](N)[C@@H](O)[C@H]1O [A-134974] | Neither ABT-702 nor A-134974 alters DNA methylation | significantly increased | 0.06 nM | – | – |
| Nc1ncnc2nc(-c3ccc(N4CCOCC4)nc3)cc(-c3cccc(Br)c3)c12 [ABT-702] | Neither ABT-702 nor A-134974 alters DNA methylation | – | 1.7 nM | – | – |
| NC(=O)N1c2ccccc2C=Cc2ccccc21 [CBZ, Carbamazepine] | does not decrease DNA methylation | – | – | does not interact with ADK | not significantly different |
